In patent US9102621B2, “Acyl sulfonamide compounds” (Pfizer Limited, priority 2010, dated 2015):

Molecular target: T1, Nav1.7 (or SCN9A) channel (Homo sapiens, UniProt Q15858)
T1 construct: expressed in transfected cells
Assay: Nav1.7 (hSCN9A) channel block, PatchXpress whole-cell electrophysiology
Assay type: cell-based
Conditions: PatchXpress platform; HEK cells stably transfected with hSCN9A; estimated IC-50 calculated from single point % inhibition at V1/2; read-out: Nav1.7 EIC50
Experimental: The ability of the compounds of formula (I) to block the Nav1.7 (or SCN9A) channel were measured using the assay described below.
Human Embryonic Kidney (HEK) cells were transfected with an hSCN9A construct using lipofectamine reagent (Invitrogen), using standard techniques. Cells stably expressing the hSCN9A constructs were identified by their resistance to G-418 (400 μg/ml). Clones were screened for expression using the whole-cell voltage-clamp technique.
HEK cells stably transfected with hSCN9A were maintained in DMEM medium supplemented with 10% heat-inactivated fetal bovine serum and 400 μg/ml G-418 in an incubator at 37° C. with a humidified atmosphere of 10% CO2. For HTS, cells were harvested from flasks by trypsinization and replated in an appropriate multi-well plate (typically 96 or 384 wells/plate) such that confluence would be achieved within 24 hours of plating. For electrophysiological studies, cells were removed from the culture flask by brief trypsinization and re-plated at low density onto glass cover slips. Cells were typically used for electrophysiological experiments within 24 to 72 hours after plating.
Cover slips containing HEK cells expressing hSCN9A were placed in a bath on the stage of an inverted microscope and perfused (approximately 1 ml/minutes) with extracellular solution of the following composition: 138 mM NaCl, 2 mM CaCl2, 5.4 mM KCl, 1 mM MgCl2, 10 mM glucose, and 10 mM HEPES, pH 7.4, with NaOH. […] The osmolarity of the extracellular and intracellular solutions was 300 mOsm/kg and 295 mOsm/kg, respectively. All recordings were made at room temperature (22-24° C.) using AXOPATCH 200B amplifiers and PCLAMP software (Axon Instruments, Burlingame, Calif.).
hSCN9A currents in HEK cells were measured using the whole-cell configuration of the patch-clamp technique (Hamill et al., 1981). Uncompensated series resistance was typically 2 to 5 mega ohms and >85% series resistance compensation was routinely achieved. As a result, voltage errors were negligible and no correction was applied. Current records were acquired at 20 to 50 KHz and filtered at 5 to 10 KHz.
HEK cells stably transfected with hSCN9A were viewed under Hoffman contrast optics and placed in front of an array of flow pipes emitting either control or compound-containing extracellular solutions. All compounds were dissolved in dimethyl sulfoxide to make 10 mM stock solutions, which were then diluted into extracellular solution to attain the final concentrations desired. […] The voltage-dependence of inactivation was determined by applying a series of depolarizing prepulses (8 sec long in 10 mV increments) from a negative holding potential. The voltage was then immediately stepped to 0 mV to assess the magnitude of the sodium current. Currents elicited at 0 mV were plotted as a function of prepulse potential to allow estimation of the voltage at which 50% of the channels were inactivated (midpoint of inactivation or V1/2). Compounds were tested for their ability to inhibit hSCN9A sodium channels by activating the channel with a 20 msec voltage step to 0 mV following an 8 second conditioning prepulse to the empirically determined V1/2. Compound effect (% inhibition) was determined by difference in current amplitude before and after application of test compounds. […] Inhibition values <20% and >80% were excluded from the calculation.
Electrophysiological assays were conducted with PatchXpress 7000 hardware and associated software (Molecular Devices Corp). All assay buffers and solutions were identical to those used in conventional whole-cell voltage clamp experiments described above. hSCN9A cells were grown as above to 50%-80% confluency and harvested by trypsinization. Trypsinized cells were washed and resuspended in extracellular buffer at a concentration of 1×10^6 cells/ml. The onboard liquid handling facility of the PatchXpress was used for dispensing cells and application of test compounds. […]

T1 sequence (Q15858 whole entry): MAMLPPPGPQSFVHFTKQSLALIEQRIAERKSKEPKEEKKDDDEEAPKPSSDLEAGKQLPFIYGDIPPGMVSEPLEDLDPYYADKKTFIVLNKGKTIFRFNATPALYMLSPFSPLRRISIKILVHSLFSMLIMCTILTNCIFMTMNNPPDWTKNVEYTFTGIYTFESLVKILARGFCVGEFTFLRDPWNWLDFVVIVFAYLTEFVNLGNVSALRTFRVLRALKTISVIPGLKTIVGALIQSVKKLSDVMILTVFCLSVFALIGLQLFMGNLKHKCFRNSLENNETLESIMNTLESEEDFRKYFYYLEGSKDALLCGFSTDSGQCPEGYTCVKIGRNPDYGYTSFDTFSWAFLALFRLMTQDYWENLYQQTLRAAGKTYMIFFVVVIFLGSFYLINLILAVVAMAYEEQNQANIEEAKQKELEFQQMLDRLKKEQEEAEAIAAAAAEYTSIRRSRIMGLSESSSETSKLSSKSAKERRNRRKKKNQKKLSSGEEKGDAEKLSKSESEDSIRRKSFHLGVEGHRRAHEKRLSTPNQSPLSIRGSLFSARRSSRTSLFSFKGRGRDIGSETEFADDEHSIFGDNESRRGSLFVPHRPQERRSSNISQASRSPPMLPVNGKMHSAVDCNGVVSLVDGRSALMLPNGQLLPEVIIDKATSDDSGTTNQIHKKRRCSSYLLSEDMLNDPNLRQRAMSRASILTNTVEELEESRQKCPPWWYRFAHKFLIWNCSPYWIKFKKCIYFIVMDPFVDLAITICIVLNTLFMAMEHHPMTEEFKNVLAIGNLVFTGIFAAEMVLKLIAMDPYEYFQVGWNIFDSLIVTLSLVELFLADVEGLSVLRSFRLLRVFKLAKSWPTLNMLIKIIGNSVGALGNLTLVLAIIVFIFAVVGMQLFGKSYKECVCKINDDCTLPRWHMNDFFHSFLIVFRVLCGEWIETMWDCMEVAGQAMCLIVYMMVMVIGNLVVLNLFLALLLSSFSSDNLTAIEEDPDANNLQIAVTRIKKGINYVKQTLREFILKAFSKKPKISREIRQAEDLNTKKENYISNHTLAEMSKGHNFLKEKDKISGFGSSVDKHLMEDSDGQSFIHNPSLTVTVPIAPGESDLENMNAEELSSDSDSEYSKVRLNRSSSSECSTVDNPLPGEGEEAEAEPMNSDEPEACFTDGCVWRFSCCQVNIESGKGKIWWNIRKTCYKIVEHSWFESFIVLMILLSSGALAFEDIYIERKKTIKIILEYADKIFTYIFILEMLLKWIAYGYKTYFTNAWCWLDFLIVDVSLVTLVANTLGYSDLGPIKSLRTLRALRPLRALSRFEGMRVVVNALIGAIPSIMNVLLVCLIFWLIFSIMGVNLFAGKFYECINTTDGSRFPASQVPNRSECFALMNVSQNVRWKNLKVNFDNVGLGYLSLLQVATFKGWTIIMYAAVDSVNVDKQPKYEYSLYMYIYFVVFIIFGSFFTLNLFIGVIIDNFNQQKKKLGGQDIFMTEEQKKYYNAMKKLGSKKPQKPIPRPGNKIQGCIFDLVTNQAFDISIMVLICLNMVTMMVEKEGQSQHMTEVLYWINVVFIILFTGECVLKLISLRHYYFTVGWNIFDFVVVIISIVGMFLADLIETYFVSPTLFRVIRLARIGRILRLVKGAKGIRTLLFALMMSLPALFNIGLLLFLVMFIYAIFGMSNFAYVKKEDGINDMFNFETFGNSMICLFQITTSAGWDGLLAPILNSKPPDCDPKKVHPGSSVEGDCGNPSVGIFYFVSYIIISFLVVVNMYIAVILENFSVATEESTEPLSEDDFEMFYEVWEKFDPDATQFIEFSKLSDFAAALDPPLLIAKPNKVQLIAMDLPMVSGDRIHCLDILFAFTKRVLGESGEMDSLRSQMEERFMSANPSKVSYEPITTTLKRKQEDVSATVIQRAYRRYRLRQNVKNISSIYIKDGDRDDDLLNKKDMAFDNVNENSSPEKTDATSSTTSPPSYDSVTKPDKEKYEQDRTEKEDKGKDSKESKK

Q: `CS(=O)(=O)NC(=O)c1cc(F)c(COc2cnc(OCCC(F)(F)F)c(Cl)c2)cc1F` [Example 11, 4-({[5-Chloro-6-(3,3,3-trifluoropropoxy)pyridin-3-yl]oxy}methyl)-2,5-difluoro-N-(methylsulfonyl)benzamide] was tested. Which IC50 did it give?
A: Its IC50 is 0.0392 µM.
